#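 Test compounds were applied to cells in 96-well plates for 48 hours at 5 doses. Here, GI50 denotes the concentration required for 50% inhibition of growth.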 Calls of active or inactive are those of the source. Cut-off read from the data, not from the text of the source: active = GI50 up to about 1.1 µM and inactive = higher.
# Experiments:
# Assay in all cases: NCI anticancer screen, dose series, 48 h
# Hs-578T = system: Hs-578T
# MDA-N = system: MDA-N
# PC-3 = system: PC-3
# T47D = system: T47D
# DU-145 = system: DU-145
# MDA-MB-435 = system: MDA-MB-435
# RXF 393 = system: RXF 393
# MCF7 = system: MCF7
# MDA-MB-231 = system: MDA-MB-231
# NCI/ADR-RES = system: NCI/ADR-RES
# SW-620 = system: SW-620
# SR = system: SR
# CAKI-1 = system: CAKI-1
# SK-OV-3 = system: SK-OV-3
# U-251 = system: U-251
# SK-MEL-5 = system: SK-MEL-5
# OVCAR-4 = system: OVCAR-4
# OVCAR-5 = system: OVCAR-5
# EKVX = system: EKVX
# SK-MEL-2 = system: SK-MEL-2
# HCT-116 = system: HCT-116
# HOP-62 = system: HOP-62
# SK-MEL-28 = system: SK-MEL-28
# NCI-H23 = system: NCI-H23
# K562 = system: K562
# NCI-H226 = system: NCI-H226
# 786-0 = system: 786-0
# OVCAR-8 = system: OVCAR-8
# SF-295 = system: SF-295
# LOX IMVI = system: LOX IMVI
# ACHN = system: ACHN
# NCI-H522 = system: NCI-H522
# TK-10 = system: TK-10
# UO-31 = system: UO-31
# NCI-H460 = system: NCI-H460
# RPMI-8226 = system: RPMI-8226
# HCT-15 = system: HCT-15
# HT-29 = system: HT-29
# HOP-92 = system: HOP-92
# MOLT-4 = system: MOLT-4
# OVCAR-3 = system: OVCAR-3
# A498 = system: A498
# M14 = system: M14
# SNB-75 = system: SNB-75
# SF-268 = system: SF-268
# HCC 2998 = system: HCC 2998
# CCRF-CEM = system: CCRF-CEM
# HL-60 = system: HL-60
# IGROV-1 = system: IGROV-1
# KM12 = system: KM12
# SF-539 = system: SF-539
# UACC-257 = system: UACC-257
# SN12C = system: SN12C
# SNB-19 = system: SNB-19
# UACC-62 = system: UACC-62
# A549 = system: A549
# COLO 205 = system: COLO 205
smiles,measurement,setting,value
COc1ccc2c(c[n+](C)c3c4cc5c(cc4ccc23)OCO5)c1OC,GI50,Hs-578T,80.4 µM (inactive)
same,GI50,MDA-N,16.7 µM (inactive)
same,GI50,PC-3,41.7 µM (inactive)
same,GI50,T47D,> 100 µM (inactive)
same,GI50,DU-145,> 100 µM (inactive)
same,GI50,MDA-MB-435,19.3 µM (inactive)
same,GI50,RXF 393,> 100 µM (inactive)
same,GI50,MCF7,9.55 µM (inactive)
same,GI50,MDA-MB-231,> 100 µM (inactive)
same,GI50,NCI/ADR-RES,34.8 µM (inactive)
CCOc1cc(/C=C2\N=C(c3ccccc3)N(c3nc4ccccc4s3)C2=O)ccc1O,GI50,SW-620,47.9 µM (inactive)
same,GI50,Hs-578T,29 µM (inactive)
same,GI50,SR,29.9 µM (inactive)
same,GI50,CAKI-1,39.9 µM (inactive)
same,GI50,SK-OV-3,> 100 µM (inactive)
same,GI50,U-251,47.9 µM (inactive)
same,GI50,SK-MEL-5,18.5 µM (inactive)
same,GI50,OVCAR-4,48.3 µM (inactive)
same,GI50,OVCAR-5,> 100 µM (inactive)
same,GI50,MDA-N,31.3 µM (inactive)
same,GI50,EKVX,> 100 µM (inactive)
same,GI50,PC-3,27.9 µM (inactive)
same,GI50,SK-MEL-2,23.8 µM (inactive)
same,GI50,T47D,40.6 µM (inactive)
same,GI50,HCT-116,42.3 µM (inactive)
same,GI50,DU-145,45.1 µM (inactive)
same,GI50,HOP-62,75 µM (inactive)
same,GI50,MDA-MB-435,40.1 µM (inactive)
same,GI50,SK-MEL-28,64.4 µM (inactive)
same,GI50,NCI-H23,21.7 µM (inactive)
same,GI50,K562,27.9 µM (inactive)
same,GI50,NCI-H226,59.8 µM (inactive)
same,GI50,786-0,61.1 µM (inactive)
same,GI50,OVCAR-8,34.7 µM (inactive)
same,GI50,SF-295,80.2 µM (inactive)
same,GI50,LOX IMVI,37.2 µM (inactive)
same,GI50,ACHN,37.3 µM (inactive)
same,GI50,NCI-H522,23.7 µM (inactive)
same,GI50,TK-10,56.9 µM (inactive)
same,GI50,UO-31,49 µM (inactive)
same,GI50,NCI-H460,29.2 µM (inactive)
same,GI50,RPMI-8226,21.6 µM (inactive)
same,GI50,RXF 393,> 100 µM (inactive)
same,GI50,HCT-15,24.5 µM
same,GI50,HT-29,64.1 µM (inactive)
same,GI50,HOP-92,> 100 µM (inactive)
same,GI50,MOLT-4,19.5 µM (inactive)
same,GI50,OVCAR-3,46.8 µM (inactive)
same,GI50,MCF7,33.3 µM (inactive)
same,GI50,A498,45.4 µM (inactive)
same,GI50,M14,44.9 µM (inactive)
same,GI50,SNB-75,51.2 µM (inactive)
same,GI50,MDA-MB-231,> 100 µM (inactive)
same,GI50,SF-268,42 µM (inactive)
same,GI50,HCC 2998,25.1 µM (inactive)
same,GI50,CCRF-CEM,34.3 µM (inactive)
same,GI50,HL-60,27.9 µM (inactive)
same,GI50,IGROV-1,28.6 µM (inactive)
same,GI50,NCI/ADR-RES,24.3 µM (inactive)
same,GI50,KM12,48.8 µM (inactive)
same,GI50,SF-539,50 µM (inactive)
same,GI50,UACC-257,48.8 µM (inactive)
CC(=O)OC[C@@]12CC[C@H]3C(C)(C)CCC[C@]3(C)[C@H]1C[C@@H](C1=CC(=O)O[C@H]1O)O2,GI50,SW-620,4.81 µM (inactive)
same,GI50,Hs-578T,4.9 µM (inactive)
same,GI50,SR,0.625 µM (active)
same,GI50,CAKI-1,2.64 µM (inactive)
same,GI50,SK-MEL-5,2.8 µM (inactive)
same,GI50,OVCAR-5,19.7 µM (inactive)
same,GI50,MDA-N,2.24 µM (inactive)
same,GI50,EKVX,11.7 µM (inactive)
same,GI50,PC-3,5.43 µM (inactive)
same,GI50,SK-MEL-2,2.15 µM (inactive)
same,GI50,T47D,2.59 µM (inactive)
same,GI50,HCT-116,2.84 µM (inactive)
same,GI50,SN12C,3.55 µM (inactive)
same,GI50,DU-145,7.29 µM (inactive)
same,GI50,HOP-62,10.4 µM (inactive)
same,GI50,MDA-MB-435,2.13 µM (inactive)
same,GI50,SK-MEL-28,1.77 µM (inactive)
same,GI50,NCI-H23,2.04 µM (inactive)
same,GI50,SNB-19,16.7 µM (inactive)
same,GI50,K562,1.48 µM (inactive)
same,GI50,786-0,1.8 µM (inactive)
same,GI50,OVCAR-8,3.18 µM (inactive)
same,GI50,SF-295,8.67 µM (inactive)
same,GI50,LOX IMVI,1.34 µM (inactive)
same,GI50,ACHN,2.54 µM (inactive)
same,GI50,NCI-H522,1.62 µM (inactive)
same,GI50,TK-10,3.94 µM (inactive)
same,GI50,UACC-62,1.94 µM (inactive)
same,GI50,UO-31,2.1 µM (inactive)
same,GI50,NCI-H460,8.69 µM (inactive)
same,GI50,RPMI-8226,2.15 µM (inactive)
same,GI50,HCT-15,2.05 µM
same,GI50,HT-29,2.52 µM (inactive)
same,GI50,MOLT-4,1.36 µM (inactive)
same,GI50,OVCAR-3,2.1 µM (inactive)
same,GI50,MCF7,1.58 µM (inactive)
same,GI50,M14,2.45 µM (inactive)
same,GI50,SNB-75,3.74 µM (inactive)
same,GI50,A549,6.97 µM (inactive)
same,GI50,SF-268,10.4 µM (inactive)
same,GI50,HCC 2998,1.61 µM (inactive)
same,GI50,CCRF-CEM,1.24 µM (inactive)
same,GI50,IGROV-1,2.55 µM (inactive)
same,GI50,NCI/ADR-RES,4.5 µM (inactive)
same,GI50,KM12,6.75 µM (inactive)
same,GI50,COLO 205,3.81 µM (inactive)
same,GI50,SF-539,2.39 µM (inactive)
same,GI50,UACC-257,2.12 µM (inactive)

# Reference: ChEMBL document CHEMBL1201862, “PubChem BioAssay data set” (2004)
